Reference: patent publication US9932637B2, “Genetic polymorphisms associated with cardiovascular disorders and drug response, methods of detection and uses thereof” (CELERA CORPORATION, priority 2003, dated 2018)

Tested on: patients with prior myocardial infarction (CARE study)
Assay: CARE: association of SNPs with pravastatin treatment in cardiovascular events prevention (logistic regression, odds ratio pravastatin vs placebo by genotype; Table 8)
Format: in vivo, human
Settings: for Fatal/Non-fatal Cerebrovascular Disease, Prava vs. Placebo Odds Ratio (95% CI): ABCA1 hCV2741051, All Patients; for 1st Stroke Occurred During CARE, n/total (%) / Any Report of Stroke During CARE, n/total (%) / Fatal/Non-fatal Cerebrovascular Disease, n/total (%) / Prava vs. Placebo Odds Ratio, 0 Rare Alleles / Prava vs. Placebo Odds Ratio, 1 Rare Alleles / Prava vs. Placebo Odds Ratio, 2 Rare Alleles / Odds ratio pravastatin vs placebo / Fatal CHD/Definite Non-fatal MI, n/total (%) / Hosp. for Unstable Angina, n/total (%) / Total Coronary Heart Disease Events, n/total (%): All Patients; for 1st Stroke Occurred During CARE, n/total (%) / Any Report of Stroke During CARE, n/total (%) / Fatal/Non-fatal Cerebrovascular Disease, n/total (%) / Fatal CHD/Definite Non-fatal MI, n/total (%) / Hosp. for Unstable Angina, n/total (%) / Total Coronary Heart Disease Events, n/total (%): Prava; for Catheterization, n/total (%): ABCC8 hCV600632, All Patients; for Catheterization, n/total (%) / Nonfatal MI (Probable/Definite), n/total (%) / Nonfatal MI (def & prob), n/total (%): Prava arm
Source text: In order to identify genetic markers associated with acute coronary events (e.g. MI, stroke, unstable angina, congestive heart failure, etc.) or response to statin treatment for the prevention of coronary events, samples from the Cholesterol and Recurrent Events (CARE) study (a randomized multicentral double-blinded trial on secondary prevention of acute coronary events with pravastatin) (Sacks et al., 1991, Am. J. Cardiol. 68: 1436-1446) were genotyped. A well-documented myocardial infarction (MI) was one of the enrollment criteria for entry into the CARE study. Patients were enrolled in the CARE trial from 80 participating study centers. […] Patients were randomized to receive either 40 mg of pravastatin once daily or a matching placebo. The primary endpoint of the trial was death from coronary heart disease and the median duration of follow-up was 5.0 years (range, 4.0 to 6.2 years). […] Secondary endpoints of other related cardiovascular or metabolic disease events, and changes in clinical variables were also recorded in pravastatin-treated and placebo groups. All individuals included in the study had signed a written informed consent form and the study protocol was approved by the respective Institutional Review Boards (IRBs).
For genotyping SNPs in CARE patient samples, DNA was extracted from blood samples using conventional DNA extraction methods such as the QIA-amp kit from Qiagen. Genotypes were obtained on an ABI PRISM® 7900HT Sequence Detection PCR system (Applied Biosystems, Foster City, Calif.) by kinetic allele-specific PCR, similar to the method described by Germer et al. (Germer S., Holland M. J., Higuchi R. 2000, Genome Res. 10: 258-266).
Statistical analysis for association of SNPs with pravastatin treatment in cardiovascular events prevention (Table 8) was carried out using an overall logistic regression model that included an intercept, a parameter for the effect of a genotype containing two rare alleles versus a genotype containing no rare alleles, a parameter for the effect of a genotype containing one rare allele versus a genotype containing no rare alleles, a parameter for the effect of use of pravastatin versus the use of placebo, and parameters for the interaction effects between SNP genotypes and pravastatin use. The test of the overall model is a chi-square test with two degrees of freedom for analyses containing all three genotypes, and one degree of freedom for analyses containing two genotypes.
Effect sizes were estimated through odds ratios (pravastatin group versus placebo) for carriers of each genotype (groups of 0, 1, and 2 minor allele carriers). The effect was considered to be significant if p-value for testing whether any of the interactions between SNP genotypes and pravastatin use were <0.05. […] Odds ratios less than one indicate that the specific SNP allele has a protective effect and odds ratios greater than one indicate that the specific SNP allele has an adverse effect.

[1] = ABCA1 hCV2741051, 1 Rare Allele, n/total 5/651
[2] = ABCA1 hCV2741051, 1st Stroke Occurred During CARE
[3] = ABCA1 hCV2741051, 2 Rare Alleles, n/total 2/127
[4] = ABCA1 hCV2741051, Any Report of Stroke During CARE
[5] = ADAMTS13 hCV11571465, All Patients, 0 Rare Alleles
[6] = ADAMTS13 hCV11571465, All Patients, 1 Rare Allele
[7] = ADAMTS13 hCV11571465, All Patients, 2 Rare Alleles
[8] = AGTR1 hCV3187716, Fatal CHD/Definite Non-fatal MI
[9] = AGTR1 hCV3187716, Hosp. for Unstable Angina
[10] = AGTR1 hCV3187716, Total Coronary Heart Disease Events

CC[C@H](C)C(=O)O[C@H]1C[C@H](O)C=C2C=C[C@H](C)[C@H](CC[C@@H](O)C[C@@H](O)CC(=O)O)[C@H]21 [pravastatin]
Fatal/Non-fatal Cerebrovascular Disease, Prava vs. Placebo Odds Ratio (95% CI) (0 Rare Alleles): 0.98
Fatal/Non-fatal Cerebrovascular Disease, Prava vs. Placebo Odds Ratio (95% CI) (1 Rare Alleles): 0.43
Fatal/Non-fatal Cerebrovascular Disease, Prava vs. Placebo Odds Ratio (95% CI) (2 Rare Alleles): 0.26
1st Stroke Occurred During CARE, n/total (%) (ABCA1 hCV2741051, 0 Rare Alleles, n/total 26/730): (3.6%)
Any Report of Stroke During CARE, n/total (%) (ABCA1 hCV2741051, 0 Rare Alleles, n/total 27/730): (3.7%)
Fatal/Non-fatal Cerebrovascular Disease, n/total (%) (ABCA1 hCV2741051, 0 Rare Alleles, n/total 51/730): (7.0%)
1st Stroke Occurred During CARE, n/total (%) [1]: (0.8%)
Any Report of Stroke During CARE, n/total (%) [1]: (0.8%)
Fatal/Non-fatal Cerebrovascular Disease, n/total (%) (ABCA1 hCV2741051, 1 Rare Allele, n/total 18/651): (2.8%)
Prava vs. Placebo Odds Ratio, 0 Rare Alleles [2]: 0.98
Prava vs. Placebo Odds Ratio, 1 Rare Alleles [2]: 0.26
Prava vs. Placebo Odds Ratio, 2 Rare Alleles [2]: 0.23
1st Stroke Occurred During CARE, n/total (%) [3]: (1.6%)
Any Report of Stroke During CARE, n/total (%) [3]: (1.6%)
Fatal/Non-fatal Cerebrovascular Disease, n/total (%) (ABCA1 hCV2741051, 2 Rare Alleles, n/total 3/127): (2.4%)
Prava vs. Placebo Odds Ratio, 0 Rare Alleles [4]: 0.92
Prava vs. Placebo Odds Ratio, 1 Rare Alleles [4]: 0.21
Prava vs. Placebo Odds Ratio, 2 Rare Alleles [4]: 0.23
Catheterization, n/total (%) (0 Rare Alleles): (12.0%)
Catheterization, n/total (%) (1 Rare Allele): (8.8%)
Catheterization, n/total (%) (2 Rare Alleles): (10.2%)
Odds ratio pravastatin vs placebo (ABCC8 hCV600632, Catheterization, 0 rare alleles): 1.21
Odds ratio pravastatin vs placebo (ABCC8 hCV600632, Catheterization, 1 rare allele): 0.55
Odds ratio pravastatin vs placebo (ABCC8 hCV600632, Catheterization, 2 rare alleles): 0.81
Nonfatal MI (Probable/Definite), n/total (%) [5]: (9.1%)
Nonfatal MI (def & prob), n/total (%) [5]: (9.1%)
Nonfatal MI (Probable/Definite), n/total (%) [6]: (10.3%)
Nonfatal MI (def & prob), n/total (%) [6]: (9.6%)
Nonfatal MI (Probable/Definite), n/total (%) [7]: (6.6%)
Nonfatal MI (def & prob), n/total (%) [7]: (6.2%)
Odds ratio pravastatin vs placebo (ADAMTS13 hCV11571465, Nonfatal MI (Probable/Definite), 0 rare alleles): 0.62
Odds ratio pravastatin vs placebo (ADAMTS13 hCV11571465, Nonfatal MI (Probable/Definite), 1 rare allele): 0.88
Odds ratio pravastatin vs placebo (ADAMTS13 hCV11571465, Nonfatal MI (Probable/Definite), 2 rare alleles): 0.38
Odds ratio pravastatin vs placebo (ADAMTS13 hCV11571465, Nonfatal MI (def & prob), 0 rare alleles): 0.65
Odds ratio pravastatin vs placebo (ADAMTS13 hCV11571465, Nonfatal MI (def & prob), 1 rare allele): 0.91
Odds ratio pravastatin vs placebo (ADAMTS13 hCV11571465, Nonfatal MI (def & prob), 2 rare alleles): 0.37
Fatal CHD/Definite Non-fatal MI, n/total (%) (AGTR1 hCV3187716, 0 Rare Alleles, n/total 63/769): (8.2%)
Hosp. for Unstable Angina, n/total (%) (AGTR1 hCV3187716, 0 Rare Alleles, n/total 120/769): (15.6%)
Total Coronary Heart Disease Events, n/total (%) (AGTR1 hCV3187716, 0 Rare Alleles, n/total 227/769): (29.5%)
Fatal CHD/Definite Non-fatal MI, n/total (%) (AGTR1 hCV3187716, 1 Rare Allele, n/total 72/625): (11.5%)
Hosp. for Unstable Angina, n/total (%) (AGTR1 hCV3187716, 1 Rare Allele, n/total 103/625): (16.5%)
Total Coronary Heart Disease Events, n/total (%) (AGTR1 hCV3187716, 1 Rare Allele, n/total 194/625): (31.0%)
Fatal CHD/Definite Non-fatal MI, n/total (%) (AGTR1 hCV3187716, 2 Rare Alleles, n/total 5/120): (4.2%)
Hosp. for Unstable Angina, n/total (%) (AGTR1 hCV3187716, 2 Rare Alleles, n/total 8/120): (6.7%)
Total Coronary Heart Disease Events, n/total (%) (AGTR1 hCV3187716, 2 Rare Alleles, n/total 20/120): (16.7%)
Prava vs. Placebo Odds Ratio, 0 Rare Alleles [8]: 0.63
Prava vs. Placebo Odds Ratio, 1 Rare Alleles [8]: 0.95
Prava vs. Placebo Odds Ratio, 2 Rare Alleles [8]: 0.24
Prava vs. Placebo Odds Ratio, 0 Rare Alleles [9]: 0.89
Prava vs. Placebo Odds Ratio, 1 Rare Alleles [9]: 0.90
Prava vs. Placebo Odds Ratio, 2 Rare Alleles [9]: 0.27
Prava vs. Placebo Odds Ratio, 0 Rare Alleles [10]: 0.80
Prava vs. Placebo Odds Ratio, 1 Rare Alleles [10]: 0.82
Prava vs. Placebo Odds Ratio, 2 Rare Alleles [10]: 0.38
Nonfatal MI (Probable/Definite), n/total (%) (APOE hCV905013, All Patients, 0 Rare Alleles): (8.4%)
Nonfatal MI (Probable/Definite), n/total (%) (APOE hCV905013, All Patients, 1 Rare Allele): (10.4%)
Nonfatal MI (Probable/Definite), n/total (%) (APOE hCV905013, All Patients, 2 Rare Alleles): (7.8%)
Odds ratio pravastatin vs placebo (APOE hCV905013, Nonfatal MI (Probable/Definite), 0 rare alleles): 0.51
